For data set [1] the following is noted: Day 0 to Day 21; Compound A 30 mg/kg; bendamustine 1 mg/kg; rituximab 1 mg/kg; alone or combined.
Data set [2] can be described thus: Body weight and tolerability, Ly19 bendamustine study (Example 4). As to conditions: for body weight Change (%), Day 3: Day 3 vs Day 0; for body weight Change (%), Day 7: Day 7 vs Day 0; for body weight Change (%), Day 10: Day 10 vs Day 0; for body weight Change (%), Day 14: Day 14 vs Day 0.
Data set [3] has as its system TMD8 DLBCL xenografts. Kind of data set: Antitumor activity in CB17 SCID mice bearing TMD8 DLBCL xenografts, bendamustine combination (Example 3). Format: in vivo, mouse. Conditions: bendamustine 1 mg/kg IV BIW, alone or combined, Day 14.
Data set [4] is described as follows: Body weight and tolerability, TMD8 bendamustine study (Example 3). As to conditions: Compound A 60 mg/kg PO QD 14 d, alone or combined.
Data set [5] has as its system OCI-Ly10 human lymphoma xenografts. Kind of data set: Antitumor activity in SCID mice bearing OCI-Ly10 human lymphoma xenografts, bendamustine and rituximab (Example 6). Format: in vivo, mouse. Conditions: Day 21; Compound A 30 mg/kg PO QD x21; bendamustine 1 mg/kg IV BIW; rituximab 1 mg/kg IV QW x3; alone or combined. (In general: In xenograft studies the graft and the host belong to different species.)

Data set [6] deals with OCI-Ly10 human DLBCL xenografts. As to the kind of experiment: Antitumor activity in SCID mice bearing OCI-Ly10 human DLBCL xenografts, ibrutinib or bendamustine combination (Example 5). Conditions: Day 21, Compound A 60 mg/kg PO QD, ibrutinib 6 mg/kg PO QD, bendamustine 1 mg/kg IV BIW (6 doses), alone or combined with Compound A. Format: in vivo, mouse.
For data set [7], the system named is Ly19 xenografts. As to the kind of experiment: Antitumor activity in SCID mice bearing Ly19 xenografts, bendamustine combination (Example 4). Format: in vivo, mouse. Conditions: for Mean Tumor Volume (mm^3) ± SEM at Day 14 / TGI (%): Day 14; for dAUC: vs vehicle.
The test system of data set [8] is OCI-Ly10 human lymphoma xenografts. Kind of data set: Antitumor activity in SCID mice bearing OCI-Ly10 human lymphoma xenografts, lenalidomide combination (Example 10). Conditions: alone or combined. Format: in vivo, mouse.
For data set [9] the following is noted: Day 0 to Day 21; Compound A 60 mg/kg; lenalidomide 10 mg/kg; alone or combined.
Setting [10] is: Compound A 60 mg/kg, bendamustine 1.0 mg/kg, alone or combined.
[11] abbreviates: bendamustine 2.0 mg/kg, alone or with Compound A 60 mg/kg.
Where [12] appears, read: Compound A 60 mg/kg PO QD x14, bendamustine 1.0 mg/kg IV BIW x2, alone or combined.
[13] abbreviates: bendamustine 2.0 mg/kg IV BIW x2, alone or with Compound A 60 mg/kg PO QD x14.

As a reminder, the TGI is how far tumour growth fell short of that in controls.

Take `Cn1c(CCCC(=O)O)nc2cc(N(CCCl)CCCl)ccc21` [bendamustine]: in data set [1], the “Maximum mean % BWL” value came to 0%. Moreover, the “animal body weight (g), Day 0” value in [2] (Day 0, Compound A 60 mg/kg PO QD x14, bendamustine 1.0 mg/kg IV BIW x2, alone or combined, mean of 8) is listed as 19.7 g. In addition, the “animal body weight (g), Day 3” value in data set [2] (Day 3, Compound A 60 mg/kg, bendamustine 1.0 mg/kg, alone or combined) came to 19.9 g. In data set [2] (setting [10]), the “body weight Change (%), Day 3” value is “+0.9%”; the “body weight Change (%), Day 7” value is recorded as “+3.7%”; the “animal body weight (g), Day 10” value is 21.2 g; the “body weight Change (%), Day 10” value is recorded as “+7.7%”. In data set [2] (setting [10]), the “animal body weight (g), Day 14” value is 22.3 g and the “body weight Change (%), Day 14” value is listed as “+13.1%”. In addition, in data set [2] (setting [11]), the “body weight Change (%), Day 3” value was “+2.0%”; the “body weight Change (%), Day 7” value was “+3.2%”; the “animal body weight (g), Day 10” value is given as 21.7 g; the “body weight Change (%), Day 10” value is “+6.2%”. In addition, in data set [2] (setting [11]), the “animal body weight (g), Day 14” value is recorded as 22.6 g and the “body weight Change (%), Day 14” value is “+10.8%”. The “Mean Tumor Volume (mm^3) ± SEM” value in data set [3] (Compound A 60 mg/kg PO QD 14 d) is 1,529.2 ± 275.9 mm^3. In [3] (Compound A 60 mg/kg PO QD), the T/C turned out to be 0.87 and the “TGI (%)” value amounted to 13.4%. In addition, the “% BW Change (Day Maximum)” value in [4] (bendamustine 1 mg/kg IV BIW 14 d, maximum change within treatment period) is recorded as 13.1 (14) %. Besides, the “Number of animals removed” value in [4] (bendamustine 1 mg/kg IV BIW) was found to be 0. Further, the TGI in data set [5] is 49.7%. Besides, the TGI in [6] worked out at 43.7%. Further, the TGI in data set [6] (listed as Bendamustine) is 43.7%. In [7] (setting [12]), the “Mean Tumor Volume (mm^3) ± SEM at Day 14” value turned out to be 2092.9 ± 175.8 mm^3 and the “TGI (%)” value was 16.2%. Besides, in data set [7] (setting [13]), the “Mean Tumor Volume (mm^3) ± SEM at Day 14” value was determined as 2029.8 ± 248.8 mm^3 and the “TGI (%)” value is given as 18.7%. In data set [7] (setting [10]), the dAUC worked out at 10.9. Also, in data set [7] (setting [11]), the dAUC was determined as 11.9.
Regarding `Nc1cccc2c1CN(C1CCC(=O)NC1=O)C2=O` (centres unmarked) [lenalidomide], the TGI in data set [8] (Day 21, Compound A 60 mg/kg PO QD x21, lenalidomide 10 mg/kg PO QD x21) was 21.1%. For the same compound, in [8] (vs vehicle, Compound A 60 mg/kg, lenalidomide 10 mg/kg), the ΔAUC is 15.2 (p = 0.014). Besides, the “Mean maximum % BWL” value in [9] came to 0%.

The record behind these values is patent US20190231757A1, “COMBINATION OF SPLEEN TYROSINE KINASE INHIBITORS AND OTHER THERAPEUTIC AGENTS” (Takeda Pharmaceutical Company Limited, priority 2016, published 2019).
